Earlier results, collected in patent US6962905B1, “Pharmaceutical formulation comprising a low molecular weight thrombin inhibitor and its prodrug” (AstraZeneca AB, priority 1999, dated 2005).

Tested on: DVT after total hip/knee replacement or major surgery
Details: background statements from literature

Compound	effect on incidence of DVT after surgery
hirudin	superior to unfractionated heparin and LMWH
CC(=O)Oc1ccccc1C(=O)O [aspirin]	limited efficacy
CC(=O)CC(c1ccccc1)c1c(O)c2ccccc2oc1=O (stereo not drawn) [warfarin]	effective in reducing DVT
